Source: publication PMC12212452, “Studies of All-trans Retinoic Acid Transport in the Eye” (Investigative Ophthalmology & Visual Science, 2025)

How the values were obtained:
Experiment in all cases: tryptophan fluorescence quenching, quadratic fit
Conditions in all cases: read-out: Association Constant / Quadratic Model Ka (×10^5 M^-1) (converted)
[1] = target: T1, BSA (bovine serum albumin) (Bos taurus, UniProt P02769); type: binding
T1 construct: gene ALB; not biotinylated in the Ka titrations
T1 sequence (P02769 25-607): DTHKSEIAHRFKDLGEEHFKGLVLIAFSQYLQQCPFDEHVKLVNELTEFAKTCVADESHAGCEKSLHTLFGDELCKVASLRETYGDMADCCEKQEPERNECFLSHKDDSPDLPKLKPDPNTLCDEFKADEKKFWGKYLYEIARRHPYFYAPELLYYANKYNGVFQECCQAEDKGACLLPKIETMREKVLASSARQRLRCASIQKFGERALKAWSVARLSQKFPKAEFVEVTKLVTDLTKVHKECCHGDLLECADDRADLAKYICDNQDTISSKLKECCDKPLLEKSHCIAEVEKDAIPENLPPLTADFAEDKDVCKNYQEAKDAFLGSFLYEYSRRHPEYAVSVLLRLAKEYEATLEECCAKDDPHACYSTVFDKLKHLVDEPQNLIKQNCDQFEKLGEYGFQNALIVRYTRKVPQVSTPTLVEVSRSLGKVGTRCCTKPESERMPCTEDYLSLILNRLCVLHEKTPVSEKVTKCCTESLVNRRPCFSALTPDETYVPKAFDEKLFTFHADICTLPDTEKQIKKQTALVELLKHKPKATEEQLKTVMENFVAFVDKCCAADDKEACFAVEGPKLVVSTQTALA
From the text: tryptophan fluorescence quenching, quadratic fit on BSA (bovine serum albumin)

[2] = target: T2, CRABP2 (cellular retinoic acid-binding protein 2) (Mus musculus, UniProt P22935)
T2 construct: recombinant in E. coli BL21(DE3), GST tag removed by PreScission Protease
T2 sequence (P22935 1-138): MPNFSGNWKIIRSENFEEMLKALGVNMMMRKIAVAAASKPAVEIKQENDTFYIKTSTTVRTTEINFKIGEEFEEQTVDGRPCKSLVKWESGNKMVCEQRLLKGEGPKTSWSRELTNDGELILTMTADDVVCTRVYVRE
From the text: tryptophan fluorescence quenching, quadratic fit on CRABP2 (cellular retinoic acid-binding protein 2)

[3] = target: T3, RBP1 (cellular retinol-binding protein 1) (Mus musculus, UniProt Q00915)
T3 construct: recombinant in E. coli BL21, GST tag cleaved with ProTEV protease
T3 sequence (Q00915 1-135): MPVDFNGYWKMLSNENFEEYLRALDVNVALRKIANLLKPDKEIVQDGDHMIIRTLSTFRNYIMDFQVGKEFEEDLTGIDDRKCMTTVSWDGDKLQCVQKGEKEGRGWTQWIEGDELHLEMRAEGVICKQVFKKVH
From the text: tryptophan fluorescence quenching, quadratic fit on RBP1 (cellular retinol-binding protein 1)

SMILES: CC1=C(/C=C/C(C)=C/C=C/C(C)=C/C(=O)O)C(C)(C)CCC1 [atRA]
- Kd [1]: 4170 nM
- Kd [2]: 12.8 nM

SMILES: CC(C)N1CCC(C)(C)c2cc(C#Cc3ccc(C(=O)O)cc3)ccc21 [floRA]
- Kd [1]: 4760 nM
- Kd [3]: 1270 nM
- Kd [2]: 14.9 nM
